# Read-outs that look alike come from different tables or passages of the source. Non-standard residues stand in square brackets, D forms with d. Residues, ends and D or L forms follow the SMILES beside them. dPhe(4-Cl) = N[C@H](Cc1ccc(Cl)cc1)C(=O)O; d2Nal = N[C@H](Cc1ccc2ccccc2c1)C(=O)O; dCit = NC(=O)NCCC[C@@H](N)C(=O)O; d3Pal = N[C@H](Cc1cccnc1)C(=O)O
# What was measured:
# mice = assay: Animal study of preventing age related inflammation; assay type: in vivo; settings: 0.5 mg/kg daily with or without gonadal hormone replacement, vs placebo
# Procedure: An animal study is conducted with 40 fertile female mice aged approximately 6-20 months in a control group (group 1) receiving placebo, 40 age and sex matched mice receiving a drug that reduces the activity of GnRH (group 2), such as Cetrorelix 0.5 mg/kg daily, and 40 age and sex matched mice receiving the same GnRH inhibitor as group 2, but with the additional replacement of gonadal hormone (oestrogen) to age adjusted pre-chosen levels. All mice are followed prospectively, and evaluated for systemic inflammation markers, atherosclerosis, osteoporosis, LDL, and age at death. The same three interventions and assessments are carried out in three groups of male mice with 40 male mice in each group, aged approximately 6-20 months, replacing the gonadal hormone testosterone to pre-chosen levels in group 3. Mice treated with a drug that reduces the activity of GnRH, such as Cetrorelix 0.5 mg/kg daily with or without the replacement of gonadal hormone (preferably with) reach a higher age at death compared with mice in the placebo groups. These mice also show less atherosclerosis, osteoporosis and systemic inflammation than mice in the placebo groups.
# [1] = tested on: patient with osteoarthritis of both knees; assay: Intra-articular GnRH inhibiting treatment in osteoarthritis; assay type: in vivo, human; settings: intra-articular 1 mg into both knees, 2 week post injection
# Text: • person with osteoarthritis of both knees diagnosed by x-ray 10 years ago • Has had synovitis secondary to osteoarthritis in both knees for the last month, confirmed by synovitis on ultrasound. Experimental Treatment • In order to treat the secondary inflammation as a result of their knee osteoarthritis, they are offered intra-articular GnRH antagonist treatment, for example Cetrorelix lmg injected into both knees. Subcutaneous Cetrorelix for injection can be used. Assessment of Response • Before and 2 week post injection ultrasound images are taken to show a decrease in synovitis in the knee joint.
# [2] = tested on: patients with rheumatoid arthritis; settings: AGRA study, 5 days, Kass et al. 2014; cited from earlier work
# [3] = tested on: patient with seropositive rheumatoid arthritis; assay: Treatment of rheumatoid arthritis using Cetrorelix; assay type: in vivo, human; settings: RA patient
# Procedure: • person with seropositive rheumatoid arthritis with disease duration of 10 years. • Fulfilled ACR 2010 classification criteria for rheumatoid arthritis. Experimental Treatment • Had tried all therapies available previously without effect. • Offered experimental GnRH antagonist therapy, Cetrorelix in 0.5 mg sc daily in October 2014, then 0.75 mg sc daily in December 2014.
# [4] = tested on: patients with active longstanding RA; assay: Double-blinded randomised study of cetrorelix vs placebo in RA (NCT00667758), serum P1NP; assay type: in vivo, human
# Procedure: In this double-blinded, single-site study in Norway (ClinicalTrials.gov NCT00667758), 99 patients with active longstanding RA, were randomised to predefined intention-to-treat populations using computer-generated allocation (1:1) in dynamic blocks stratified for sex. Patients were assigned to subcutaneous cetrorelix (n=48) (5 mg days 1-2, 3 mg days 3-5) or placebo (n=51). P1NP was measured on day 10. We investigated serum P1NP between groups, a predefined secondary endpoint. Detailed efficacy and safety data are presented separately.
# [5] = tested on: patient with systemic sclerosis; settings: Cyclophosphamide trial, literature, cited from earlier work
# [6] = tested on: patient with spondyloarthritis; assay: Example treatment of spondyloarthritis using Relugolix; assay type: in vivo, human
# Procedure: • person with spondyloarthritis with disease duration of 5 years. Experimental Treatment • Is offered experimental GnRH antagonist therapy, Relugolix 400 mg daily for 12 weeks. Assessment of Response at 4 Months • Disease activity in ankylosing spondylitis/spondyloarthritis is measured by the BASDAI score. Their BASDAI is 5 at baseline.
# [7] = tested on: patient with seropositive rheumatoid arthritis; assay: Example treatment of RA using oral GnRH antagonists (DAS); assay type: in vivo, human
# Procedure: • person with seropositive rheumatoid arthritis with disease duration of 10 years. • Fulfills ACR 2010 classification criteria for rheumatoid arthritis. Experimental Treatment • Is offered experimental GnRH antagonist therapy, Elagolix 550 mg daily for 12 weeks.
# • person with seropositive rheumatoid arthritis with disease duration of 10 years. • Fulfills ACR 2010 classification criteria for rheumatoid arthritis. Experimental Treatment • Is offered experimental GnRH antagonist therapy, Relugolix 250 mg daily for 12 weeks.
# • person with seropositive rheumatoid arthritis with disease duration of 20 years. • Fulfills ACR 2010 classification criteria for rheumatoid arthritis. Experimental Treatment • Treated with a spiroindoline derivative as a GnRH antagonist orally 200 mg daily for 12 weeks.
# [8] = tested on: patient with systemic lupus erythematosus; assay: Previous therapies for pain in extremities of the lupus patient; assay type: in vivo, human; settings: previous therapies before degarelix
# Procedure: Due to their painful condition, they have been followed up by a pain clinic. They were offered a tricyclic antidepressant, amitriptyline 25 mg in March 2014 for their painful condition.
# [9] = tested on: patient with lithium induced psoriasis; settings: 15 patients with psoriasis taking lithium, pretreatment, literature; cited from earlier work
# [10] = tested on: patient with ankylosing spondylitis; assay: Treatment of ankylosing spondylitis patient (BASDAI, laboratory variables); assay type: in vivo, human; settings: AS patient
# Text: Diagnosed with ankylosing spondylitis in 1984, HLAB27 positive, with repeated iridocyclitis. Used non-steroidal anti-inflammatory drugs previously. They were offered the TNF-alpha inhibitor Golilimumab in 2010. Their disease activity score was 8.9 in October 2010 (see below for explanation of disease activity score) on initiating Golilimumab; by the June 2012 this score had reduced to 6.6, but by May 2013 the effect had worn off and their score was 7.6. May 2013, they initiated Enbrel treatment, but their disease activity increased from 7.6 to 8.3. Due to their poor response to TNF-alpha therapy, they were offered the GnRH antagonist Degarelix in September 2014.
# Disease activity in ankylosing spondylitis is measured by the BASDAI (Bath Ankylosing Spondylitis Disease Activity Index1), has been extensively validated in clinical trials, 2, 3 and is one of the most commonly used outcome measures in clinical trials. This is a componsite index that evaluates fatigue, axial and peripheral pain, stiffness and enthesopathy. Their BASDAI was at 8.7 at baseline. In September 2014 they received their first dose of Degarelix 240 mg sc. By 2 weeks, their BASDAI had reduced to 6.8, and by 6 weeks it had reduced to 5.8. This is the lowest BASDAI score they have ever had since we first started using this method of assessment 4 years ago in 2010. Their morning stiffness lasted 4 hours at baseline, by 6 weeks their morning stiffness had reduced to 2 hours. They had their second dose of Degarelix 80 mg s.c in October 2014. Lumbar flexion and maximum arm abduction were increased after 6 weeks of treatment.
# Response to therapy in clinical practice is defined as improvement of 2 units or 50% on a 0-10 scale of the BASDAI, and expert opinion that the treatment should be continued. Their reduction by 6 weeks was 2.9 units, and 7.1 units with an 82% BASDAI score improvement by 9 weeks, and we shall continue treatment. A BASDAI 50% improvement is defined as a major clinical response. […] For comparison, approximately 50-60% of patients achieve a BASDAI 50 by 12 weeks on TNF inhibitors (4). Their ESR has decreased from 46 mm to 23 mm, which is their lowest ESR reading in 19 years. […] By 9 weeks of GnRH antagonist therapy, their kidney function has normalized, and fasting glucose reduced from 7.4 to 6.5 mmol/L. By 3 months, the effect on their ankylosing spondylitis remained, creatinine was at 98 umol/L, with a glomerular filtration rate of 66 ml/min/1.73 m2 in December 2014.
# patient with colitis = settings: week 2 after an infliximab infusion, literature; cited from earlier work
compound,measurement,setting,value
CC(=O)N[C@H](Cc1ccc2ccccc2c1)C(=O)N[C@H](Cc1ccc(Cl)cc1)C(=O)N[C@H](Cc1cccnc1)C(=O)N[C@@H](CO)C(=O)N[C@@H](Cc1ccc(O)cc1)C(=O)N[C@H](CCCNC(N)=O)C(=O)N[C@@H](CC(C)C)C(=O)N[C@@H](CCCNC(=N)N)C(=O)N1CCC[C@H]1C(=O)N[C@H](C)C(N)=O [Cetrorelix] (Ac-[d2Nal][dPhe(4-Cl)][d3Pal]SY[dCit]LRP[dA]-NH2),age at death,mice,higher
same,"atherosclerosis, osteoporosis and systemic inflammation",mice,less
same,synovitis in the knee joint on ultrasound,[1],decrease
same,TNF-α,[2],possible reduction
same,primary end-point with regard to clinical response,[2],did not meet the primary end-point
same,CRP,[3]; at 12 weeks,18 mg/L
same,ESR,[3]; at 12 weeks,28 mm
same,rheumatoid factor level,[3]; at 12 weeks,111 kIU/L
same,Disease activity score (DAS),"[3]; at 12 weeks, 0.5 then 0.75 mg sc daily",5.5
same,CRP,[3]; before Cetrorelix,41 mg/L
same,Disease activity score (DAS),[3]; before Cetrorelix,6.1
same,ESR,[3]; before Cetrorelix,35 mm
same,rheumatoid factor level,[3]; before Cetrorelix,137 kIU/L
same,P1NP mean difference vs placebo,"[4]; by day 10, 95% CI −6.62, −0.29, p=0.033",-3.45 µg/L
same,P1NP change,"[4]; cetrorelix group (n=48), 5 mg days 1-2, 3 mg days 3-5, by day 10",-4.21 µg/L
same,disease activity markers and TNF-α (log pg/mL),[4]; cetrorelix vs placebo,significant reductions
O=P1(N(CCCl)CCCl)NCCCO1 (stereo not drawn) [Cyclophosphamide],"digital ulcers, average",[5]; over a period of 12 months,9 ulcers
same,"digital ulcers, average",[5]; start,7 ulcers
CONC(=O)Nc1ccc(-c2sc3c(c2CN(C)C)c(=O)n(-c2ccc(OC)nn2)c(=O)n3Cc2c(F)cccc2F)cc1 [Relugolix],BASDAI,"[6]; Relugolix 400 mg daily, at 12 weeks (remission)",1.2
same,BASDAI,[6]; baseline,5
same,Eular response,"[7]; Relugolix 250 mg daily for 12 weeks, assessment at 4 months",Good Eular Response
same,Disease activity score (DAS),"[7]; Relugolix 250 mg daily for 12 weeks, assessment at 4 months (remission)",2.5
same,Disease activity score (DAS),[7]; before Relugolix,3.5
CN(C)CCC=C1c2ccccc2CCc2ccccc21 [amitriptyline],effect on pain in extremities,[8],no effect
Cn1cnc([N+](=O)[O-])c1Sc1ncnc2nc[nH]c12 [azathioprine],effect on pain in extremities,[8],not effective
NCC1(CC(=O)O)CCCCC1 [gabapentin],effect on pain in extremities,[8],no effect
O[C@H]1[C@H](O)[C@@H](O)[C@H](O)[C@@H](O)[C@H]1O [inositol],median PASI score,[9],4.9
CN(Cc1cnc2nc(N)nc(N)c2n1)c1ccc(C(=O)N[C@@H](CCC(=O)O)C(=O)O)cc1 [methotrexate],effect on pain in extremities,[8],not effective
COc1c(C)c2c(c(O)c1C/C=C(\C)CCC(=O)OCCN1CCOCC1)C(=O)OC2 [mycophenolate mofetil],effect on pain in extremities,[8],not effective
CC(C)C[C@H](CN)CC(=O)O [pregabalin],effect on pain in extremities,[8],no effect
Enbrel,disease activity (BASDAI),"[10]; May 2013, on initiating Enbrel",7.6
same,disease activity (BASDAI),[10]; after Enbrel treatment,8.3
Golilimumab: TNF-alpha inhibitor,disease activity score (BASDAI),[10]; June 2012 on Golilimumab,6.6
same,disease activity score (BASDAI),"[10]; May 2013 on Golilimumab, effect worn off",7.6
same,disease activity score (BASDAI),"[10]; October 2010, on initiating Golilimumab",8.9
infliximab: anti-tumour necrosis factor-α,Fecal calprotectin concentration,patient with colitis,decreases significantly

# — US10821152B2, “Methods, agents and compositions for treatment of inflammatory conditions” (Betanien Hospital, priority 2014, dated 2020)
